Read-outs that look alike come from different tables or passages of the source.
What was measured:
[1] = test system: NZB/WF1 mice; assay: Influence on antibody production in NZB/WF1 mice (Pharmacological Experiment 2); format: in vivo, mouse (NZB/WF1 female); details: for Number of PFC: 3 times, mean ± standard error, n = 5, (*) significant vs Control
Method: Influence of the organogermanium compound on antibody production is checked with use of NZB/WF1 mice who generate an autoimmune disease due to polyclonal activation of B cells, caused by functional reduction of suppresser T cell activities.
NZB/WF1 female mice (age of 11 weeks) were classified into Control group and Test groups (5 mice for each group), and 2×10^8 cells of SRBC were injected in a tail vein of each mouse for sensitization.
To the mice in each Test group, the organogermanium compound (Example 4) dissolved in 4% bovine serum albumin solution was orally administered in a dose of 1.0 or 10.0 mg/kg/day at 3 time, namely the day before, just after and the day after the sensitization.
After 4 days from the sensitization, spleen was removed from each mouse and number of PFC in 10^6 spleen cells was measured, as an index of the antibody production in the NZB/WF1 mice.

[2] = test system: Vaccinia virus (DI strain); format: in vivo, mouse (ddy male); details: for Inhibition (pocks) / Number of pocks: 7th day; for Number of pocks: mean ± standard error, n = 10, (***) p < 0.001 vs Control
[3] = test system: Influenza virus (A/PR/S strain); assay: Anti-virus effect, influenza virus infection model of mouse (Pharmacological Experiment 9); format: in vivo, mouse (BALB/c male); details: for Ratio of survival / Average life: 6 days; for Ratio of survival: 20 days from infection
Method: An antiviral effect of the compound according to the invention is investigated with an experimental influenza virus infection model of mouse.
Influenza virus (A/PR/S strain) was inoculated into a trachea of BALB/c male mice at 9.0 PFU/mouse. The organogermanium compound (Example 4) dissolved in 4% bovine serum albumin solution was orally administered at the dose of 0.1, 1.0 and 10.0 mg/kg once a day for 6 days from the day just after the infection to the 5th day therefrom.
A mortality of the mice was observed over 20 days from the virus infection.

[4] = test system: chronic liver injury induced by carbon tetrachloride (serum transaminases); assay: Action to chronic liver injury induced by carbon tetrachloride (Pharmacological Experiment 11); format: in vivo, rat (Wister male); details: for s-GOT / s-GPT: 10 weeks every other day, mean ± standard error, n = 10
Method: An action of the organogermanium compound of the invention to a chronic liver injury to be induced by carbon tetrachloride, as an experimental model for liver injury is checked, through measurement of serum transaminases, as indexes.
To Wister male rats (n=10 for each group), carbon tetrachloride was intraperitoneally administered at the dose of 480 mg/kg at 2 times by each week for 10 weeks to induce a chronic liver injury.
To the […] in each Test group, the compound according to the invention (Example 4) dissolved in 4% bovine serum albumin solution was orally administered at the dose of 0.1, 1.0 and 10.0 mg/kg/day over 10 weeks in every other day.
After having lapsed 2 days from the final administration of carbon tetrachloride, a blood letting was carried out to measure GOT and GPT values in serum.

[5] = 0.1 mg/kg (as printed in Table 8) orally
[6] = 1.0 mg/kg/day orally, (*) p < 0.05 vs Control

Sodium 2-oxygermylethanesulfonate polymer [Example 4]
Number of PFC ([1]; 1.0 mg/kg/day orally): 3511 ± 302 PFC in 10^6 spleen cells
Number of PFC ([1]; 10.0 mg/kg/day orally): 3800 ± 360 PFC in 10^6 spleen cells
Number of PFC (result in words) ([1]; treatment groups, 1.0 or 10.0 mg/kg/day orally): the number of PFC was significantly reduced
Inhibition (pocks) [2, 5]: 41.0%
Number of pocks [2, 5]: 23 ± 2
Inhibition (pocks) ([2]; 10.0 mg/kg orally): 43.5%
Number of pocks ([2]; 10.0 mg/kg orally): 22 ± 4
Host defense against Vaccinia virus (result in words) ([2]; orally): has host defense function against Vaccinia virus infected mice
Ratio of survival ([3]; 0.1 mg/kg orally once a day): 0/10
Average life ([3]; 0.1 mg/kg orally once a day, (*) p < 0.05 vs Control): 10.0 days
Ratio of survival ([3]; 1.0 mg/kg orally once a day): 4/10
Average life ([3]; 1.0 mg/kg orally once a day, (***) p < 0.001 vs Control): 15.2 days
Mice alive at end of test period ([3]; 1.0 mg/kg orally, 20 days from the infection): 4 mice
Ratio of survival ([3]; 10.0 mg/kg orally once a day): 3/10
Average life ([3]; 10.0 mg/kg orally once a day, (**) p < 0.01 vs Control): 13.7 days
Average life vs Control group (result in words) ([3]; each of Testing groups, 0.1, 1.0 and 10.0 mg/kg orally): a significant difference has been recognized
s-GOT ([4]; 0.1 mg/kg/day orally): 1200 ± 180
s-GPT ([4]; 0.1 mg/kg/day orally): 1005 ± 97 Karmen Unit
s-GOT [4, 6]: 1054 ± 140
s-GPT [4, 6]: 940 ± 83 Karmen Unit
s-GPT ([4]; 10.0 mg/kg/day orally): 1086 ± 112 Karmen Unit
s-GOT ([4]; 10.0 mg/kg/day orally, (*) p < 0.05 vs Control): 1020 ± 164
GOT and GPT values (result in words) ([4]; by the dose of 1.0 mg/kg orally): noticeably decreasing GOT and GPT values

From US5008416A, “Organogermanium compound, process for the preparation of same as well as use thereof” (Sanwa Kagaku Kenkyusho Co., Ltd., priority 1989, dated 1991)
